Data: ChEMBL document CHEMBL5360657, “Discovery of the TLR7/8 Antagonist MHV370 for Treatment of Systemic Autoimmune Diseases” (ACS Med Chem Lett, 2023)
pIC50: −log10 of the molar value.

Columns and labels:
[1] = Solubility of the compound; type: physicochemical
Toll-like receptor 8 = molecular target: T1, Toll-like receptor 8 (Homo sapiens, UniProt Q9NR97); experiment: Antagonist activity at TLR8 in human PBMC cells […] assessed as reduction in IL-6 level measured after 20 hrs by AlphaLISA assay; type: cell-based
T1 sequence (Q9NR97 whole entry): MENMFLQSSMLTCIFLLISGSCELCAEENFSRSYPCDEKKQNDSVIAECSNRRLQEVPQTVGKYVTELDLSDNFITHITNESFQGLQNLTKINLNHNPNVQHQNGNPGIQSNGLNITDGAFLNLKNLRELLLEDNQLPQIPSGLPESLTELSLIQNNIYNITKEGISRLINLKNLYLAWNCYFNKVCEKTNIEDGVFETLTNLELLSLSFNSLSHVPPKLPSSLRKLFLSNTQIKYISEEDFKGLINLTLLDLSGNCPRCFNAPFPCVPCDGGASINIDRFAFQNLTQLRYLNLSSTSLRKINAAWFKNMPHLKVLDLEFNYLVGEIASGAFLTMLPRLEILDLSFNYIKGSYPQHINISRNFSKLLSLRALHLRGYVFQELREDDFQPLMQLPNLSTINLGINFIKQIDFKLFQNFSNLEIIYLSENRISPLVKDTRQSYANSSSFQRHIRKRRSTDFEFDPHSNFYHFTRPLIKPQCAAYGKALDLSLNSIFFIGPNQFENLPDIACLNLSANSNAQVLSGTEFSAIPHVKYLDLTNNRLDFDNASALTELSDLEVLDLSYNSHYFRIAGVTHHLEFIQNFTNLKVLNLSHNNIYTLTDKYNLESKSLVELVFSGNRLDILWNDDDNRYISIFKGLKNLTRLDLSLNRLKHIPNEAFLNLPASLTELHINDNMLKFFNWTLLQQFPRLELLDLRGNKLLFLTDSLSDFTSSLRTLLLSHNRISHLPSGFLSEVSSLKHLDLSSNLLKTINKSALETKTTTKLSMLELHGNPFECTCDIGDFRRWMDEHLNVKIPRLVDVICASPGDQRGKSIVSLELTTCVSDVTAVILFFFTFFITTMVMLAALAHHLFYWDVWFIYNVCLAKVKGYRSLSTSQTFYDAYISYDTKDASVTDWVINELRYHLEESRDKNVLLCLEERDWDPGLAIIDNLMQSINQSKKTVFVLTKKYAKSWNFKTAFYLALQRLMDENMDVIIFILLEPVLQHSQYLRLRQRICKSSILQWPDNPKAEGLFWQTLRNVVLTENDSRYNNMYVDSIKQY

[2] = Metabolic stability in rat liver microsomes assessed as intrinsic clearance; type: ADME, Microsome; settings: read-out: CLH
[3] = Permeability of the compound by PAMPA; type: ADME
[4] = Metabolic stability in human liver microsomes assessed as intrinsic clearance; type: ADME, Microsome; settings: read-out: CLH
[5] = molecular target: Voltage-gated inwardly rectifying potassium channel KCNH2 (Homo sapiens, UniProt Q12809); experiment: Displacement of [3H]-dofetilite from human ERG (unknown origin); type: toxicity
[6] = Metabolic stability in mouse liver microsomes assessed as intrinsic clearance; type: ADME, Microsome; settings: read-out: CLH
Cytochrome P450 3A4 [7] = molecular target: T2, Cytochrome P450 3A4 (Homo sapiens, UniProt P08684); experiment: Inhibition of CYP3A4 (unknown origin); type: ADME
Toll-like receptor 9 = molecular target: T3, Toll-like receptor 9 (Homo sapiens, UniProt Q9NR96); experiment: Antagonist activity at TLR9 in human PBMC cells assessed as reduction in IFN alpha measured after 20 hrs by AlphaLISA assay; type: cell-based
T3 sequence (Q9NR96 whole entry): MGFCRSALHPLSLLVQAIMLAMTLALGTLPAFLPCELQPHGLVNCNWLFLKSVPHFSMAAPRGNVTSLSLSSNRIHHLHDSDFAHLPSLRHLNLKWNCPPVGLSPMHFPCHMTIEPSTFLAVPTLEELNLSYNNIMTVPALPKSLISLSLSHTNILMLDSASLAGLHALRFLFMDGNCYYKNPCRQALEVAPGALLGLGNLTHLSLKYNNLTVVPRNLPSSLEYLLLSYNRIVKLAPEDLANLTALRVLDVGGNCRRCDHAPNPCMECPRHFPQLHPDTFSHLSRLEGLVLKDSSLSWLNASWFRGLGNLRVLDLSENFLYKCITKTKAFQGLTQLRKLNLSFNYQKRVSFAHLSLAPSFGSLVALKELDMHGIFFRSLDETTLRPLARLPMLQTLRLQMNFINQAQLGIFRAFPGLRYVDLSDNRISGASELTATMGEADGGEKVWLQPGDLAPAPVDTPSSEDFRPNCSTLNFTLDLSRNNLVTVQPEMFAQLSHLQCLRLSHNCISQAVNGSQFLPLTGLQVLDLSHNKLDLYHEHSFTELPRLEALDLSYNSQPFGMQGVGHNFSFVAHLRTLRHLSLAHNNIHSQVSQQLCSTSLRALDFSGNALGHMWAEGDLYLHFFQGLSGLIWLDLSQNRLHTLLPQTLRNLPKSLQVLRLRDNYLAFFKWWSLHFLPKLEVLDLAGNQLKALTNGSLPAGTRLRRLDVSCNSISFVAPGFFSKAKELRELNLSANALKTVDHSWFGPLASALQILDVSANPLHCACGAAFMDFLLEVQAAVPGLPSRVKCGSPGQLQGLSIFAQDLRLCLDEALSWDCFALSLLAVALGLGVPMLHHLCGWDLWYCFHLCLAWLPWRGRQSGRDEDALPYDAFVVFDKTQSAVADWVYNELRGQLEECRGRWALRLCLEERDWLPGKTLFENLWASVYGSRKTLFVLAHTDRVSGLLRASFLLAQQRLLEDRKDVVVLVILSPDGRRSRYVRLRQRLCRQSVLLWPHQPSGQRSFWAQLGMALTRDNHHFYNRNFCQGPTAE

Cytochrome P450 3A4 [8] = molecular target: T2, Cytochrome P450 3A4; experiment: Time dependent inhibition of CYP3A4 (unknown origin) assessed as Kobs; type: ADME
Toll-like receptor 7 = molecular target: T4, Toll-like receptor 7 (Homo sapiens, UniProt Q9NYK1); experiment: Antagonist activity at TLR7 in human PBMC cells assessed as reduction in IFN alpha measured after 20 hrs by AlphaLISA assay; type: cell-based
T4 sequence (Q9NYK1 whole entry): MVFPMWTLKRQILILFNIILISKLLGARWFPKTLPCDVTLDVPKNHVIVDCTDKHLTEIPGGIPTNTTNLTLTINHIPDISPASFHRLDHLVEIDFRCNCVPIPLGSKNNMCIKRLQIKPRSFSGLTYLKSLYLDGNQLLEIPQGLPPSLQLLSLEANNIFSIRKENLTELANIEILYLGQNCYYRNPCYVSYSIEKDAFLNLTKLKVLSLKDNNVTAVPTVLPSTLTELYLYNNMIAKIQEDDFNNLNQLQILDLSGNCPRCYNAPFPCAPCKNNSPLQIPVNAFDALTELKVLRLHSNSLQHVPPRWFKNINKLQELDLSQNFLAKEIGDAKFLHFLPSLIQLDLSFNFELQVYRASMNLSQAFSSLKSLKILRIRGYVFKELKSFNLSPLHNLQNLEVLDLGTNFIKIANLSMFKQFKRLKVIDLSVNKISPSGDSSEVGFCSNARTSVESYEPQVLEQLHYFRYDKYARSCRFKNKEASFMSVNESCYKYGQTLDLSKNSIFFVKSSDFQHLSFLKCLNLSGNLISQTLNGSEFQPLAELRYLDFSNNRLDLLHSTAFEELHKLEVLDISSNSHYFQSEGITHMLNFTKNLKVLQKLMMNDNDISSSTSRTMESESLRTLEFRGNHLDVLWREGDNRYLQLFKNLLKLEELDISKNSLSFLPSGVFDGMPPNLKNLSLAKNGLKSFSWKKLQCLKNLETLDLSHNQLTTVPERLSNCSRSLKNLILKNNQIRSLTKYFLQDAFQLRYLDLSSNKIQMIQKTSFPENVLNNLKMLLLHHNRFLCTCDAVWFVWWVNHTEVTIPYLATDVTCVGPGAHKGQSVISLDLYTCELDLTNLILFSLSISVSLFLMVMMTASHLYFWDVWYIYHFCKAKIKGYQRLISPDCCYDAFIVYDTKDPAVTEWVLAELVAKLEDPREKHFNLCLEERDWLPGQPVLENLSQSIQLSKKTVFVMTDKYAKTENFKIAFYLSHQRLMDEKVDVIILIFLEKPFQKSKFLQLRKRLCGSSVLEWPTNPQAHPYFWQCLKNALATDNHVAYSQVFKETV

Voltage-gated inwardly rectifying potassium channel KCNH2, sequence (Q12809 whole entry): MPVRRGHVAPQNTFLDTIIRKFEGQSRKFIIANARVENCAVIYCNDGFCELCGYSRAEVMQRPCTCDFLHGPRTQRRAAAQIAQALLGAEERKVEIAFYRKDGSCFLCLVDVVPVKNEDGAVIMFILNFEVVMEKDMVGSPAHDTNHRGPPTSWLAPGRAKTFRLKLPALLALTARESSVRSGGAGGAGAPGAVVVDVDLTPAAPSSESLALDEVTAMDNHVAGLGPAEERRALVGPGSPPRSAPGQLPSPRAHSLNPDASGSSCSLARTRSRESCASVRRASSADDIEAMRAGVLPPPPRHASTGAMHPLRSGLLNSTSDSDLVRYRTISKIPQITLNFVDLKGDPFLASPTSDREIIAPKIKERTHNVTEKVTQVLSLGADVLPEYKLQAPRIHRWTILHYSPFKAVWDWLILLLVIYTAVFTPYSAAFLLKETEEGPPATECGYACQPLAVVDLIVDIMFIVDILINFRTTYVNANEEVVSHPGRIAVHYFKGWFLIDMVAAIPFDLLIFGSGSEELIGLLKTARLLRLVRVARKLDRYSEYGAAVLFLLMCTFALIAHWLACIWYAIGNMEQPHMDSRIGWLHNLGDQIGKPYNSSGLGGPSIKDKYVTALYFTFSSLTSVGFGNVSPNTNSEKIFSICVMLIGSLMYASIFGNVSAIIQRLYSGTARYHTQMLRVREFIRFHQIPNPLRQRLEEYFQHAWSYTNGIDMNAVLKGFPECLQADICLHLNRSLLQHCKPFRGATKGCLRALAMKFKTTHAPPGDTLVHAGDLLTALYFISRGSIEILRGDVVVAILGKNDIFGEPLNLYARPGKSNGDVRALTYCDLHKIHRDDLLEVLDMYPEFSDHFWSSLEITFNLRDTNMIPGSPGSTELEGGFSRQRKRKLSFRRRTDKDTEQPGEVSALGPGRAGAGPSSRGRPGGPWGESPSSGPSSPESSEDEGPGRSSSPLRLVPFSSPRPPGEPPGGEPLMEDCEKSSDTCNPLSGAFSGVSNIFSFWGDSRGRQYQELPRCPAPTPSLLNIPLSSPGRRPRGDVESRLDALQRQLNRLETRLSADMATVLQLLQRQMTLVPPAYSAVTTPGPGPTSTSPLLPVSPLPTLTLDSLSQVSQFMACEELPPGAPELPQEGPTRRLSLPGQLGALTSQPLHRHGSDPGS
T2 sequence (P08684 whole entry): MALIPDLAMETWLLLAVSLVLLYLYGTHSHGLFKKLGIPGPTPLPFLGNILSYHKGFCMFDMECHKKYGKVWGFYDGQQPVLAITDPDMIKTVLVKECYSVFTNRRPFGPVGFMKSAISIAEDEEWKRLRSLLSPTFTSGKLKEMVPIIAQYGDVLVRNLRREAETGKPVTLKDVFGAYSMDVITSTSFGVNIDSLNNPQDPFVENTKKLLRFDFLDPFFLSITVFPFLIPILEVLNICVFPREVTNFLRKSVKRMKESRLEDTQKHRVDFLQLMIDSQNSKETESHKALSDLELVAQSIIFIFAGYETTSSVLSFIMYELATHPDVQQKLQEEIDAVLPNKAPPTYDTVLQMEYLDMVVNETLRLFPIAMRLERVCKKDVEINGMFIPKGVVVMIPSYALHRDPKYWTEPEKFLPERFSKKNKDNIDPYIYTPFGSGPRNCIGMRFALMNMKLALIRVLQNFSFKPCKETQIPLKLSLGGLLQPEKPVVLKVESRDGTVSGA

Row | solubility [1] [µM] | pIC50 (Toll-like receptor 8) | microsomal CLint [2] [µL/min/mg] | log(permeability) [3] | microsomal CLint [4] [µL/min/mg] | microsomal CLint [6] [µL/min/mg] | pIC50 (Cytochrome P450 3A4 [7]) | pIC50 (Toll-like receptor 9) | Kobs (Cytochrome P450 3A4 [8]) [min⁻¹] | pIC50 (Toll-like receptor 7) | SMILES | pIC50 [5]
1 | > 175 | 7.07 | 55 | -4.7 | 62 | 24 | 4.74 | 6.46 | 0.022 |  | Cc1cc(N2CCc3c(c(C)nn3CC34CCC(N5CCCC5)(CC3)CC4)C2)c2cnn(C)c2n1 | 4.96
2 |  | 6.40 | 87 | -5 | 39 | 103 | < 4.30 | < 5.14 | 0.015 | 7.25 | Cc1cc(N2CCc3c(c(C)nn3CC34CCC(N5CCN(C)C(=O)C5)(CC3)CC4)C2)c2cnn(C)c2n1 | < 4.52
3 | > 175 | < 5.00 | 45 | -4.6 | 63 |  | 4.62 | 5.28 | 0.022 |  | CC(=O)NC12CCC(Cn3nc(C)c4c3CCN(c3cc(C)nc5c3cnn5C)C4)(CC1)CC2 | < 4.52
4 |  |  | 50 | -4.3 | 71 | 251 | < 4.30 | 5.26 |  | 7.72 | Cc1cc(N2CCc3c(c(C)nn3CC34CCC(N5CCN(C)CC5=O)(CC3)CC4)C2)c2cnn(C)c2n1 | < 4.52
5 |  | 6.72 | < 15 | -5.3 | < 15 | 120 | < 4.30 | 6.11 | 0.023 |  | CN[C@H](C)C(=O)NC12CCC(Cn3nc(C)c4c3CCN(c3cc(C)nc5c3cnn5C)C4)(CC1)CC2 | < 4.52
6 |  | 7.60 | 33 | -4.3 | 147 | 104 | < 4.30 | 6.14 | 0.006 | 8.22 | Cc1cc(N2CCc3c(c(C)nn3CC34CCC(NC(=O)CN(C)C)(CC3)CC4)C2)c2cnn(C)c2n1 | < 4.52
7 | > 175 | 6.85 | 656 | -3.7 | 423 |  | 5.07 |  | 0.011 |  | Cc1cc(N2CCc3c(c(C)nn3CC34CCC(NCC(F)F)(CC3)CC4)C2)c2cnn(C)c2n1 | < 4.52
8 |  | 6.72 | 29 | -5.4 | 31 | < 15 |  | 5.52 |  | 7.39 | Cc1cc(N2CCc3c(c(C)nn3CC34CCC(NCC(=O)N(C)C)(CC3)CC4)C2)c2cnn(C)c2n1 | 
9 |  | 8.15 | 48 | -4.1 | 463 | > 700 | 4.55 |  | 0.013 | > 8.30 | CCN(C)CC(=O)NC12CCC(Cn3nc(C)c4c3CCN(c3cc(C)nc5c3cnn5C)C4)(CC1)CC2 | < 4.52
10 |  | 7.17 | 24 | -5.2 | 135 | 93 | 5.26 | 6.72 |  | 8.70 | Cc1cc(N2CCc3c(c(C)nn3CC34CCC(NC(=O)[C@@H]5CNCCO5)(CC3)CC4)C2)c2cnn(C)c2n1 | 
11 |  | 6.92 | 30 | -4.7 | 96 | 65 | < 4.30 | 6.28 | 0.015 | 8.30 | Cc1cc(N2CCc3c(c(C)nn3CC34CCC(N5CCC5)(CC3)CC4)C2)c2cnn(C)c2n1 | < 4.52
12 |  | 7.22 | 37 | -4.6 | 90 |  | 4.77 | 6.55 | 0.044 | 9.00 | Cc1cc(N2CCc3c(c(C)nn3CC34CCC(NC(=O)CN5CCC5)(CC3)CC4)C2)c2cnn(C)c2n1 | < 4.52
13 |  |  | < 15 | -4.1 | 329 | 531 |  | 5.92 |  | 8.40 | Cc1cc(N2CCc3c(c(C)nn3CC34CCC(NC(=O)CN5CCCC5)(CC3)CC4)C2)c2cnn(C)c2n1 | 

Row | SMILES | solubility [1] [µM] | pIC50 (Toll-like receptor 8) | microsomal CLint [2] [µL/min/mg] | log(permeability) [3] | microsomal CLint [4] [µL/min/mg] | microsomal CLint [6] [µL/min/mg] | pIC50 (Cytochrome P450 3A4 [7]) | pIC50 (Toll-like receptor 9) | Kobs (Cytochrome P450 3A4 [8]) [min⁻¹] | pIC50 (Toll-like receptor 7) | pIC50 [5]
14 | Cc1cc(N2CCc3c(c(C)nn3CC34CCC(NC(=O)[C@H]5COCCN5)(CC3)CC4)C2)c2cnn(C)c2n1 |  | 6.66 | < 15 | -5.3 | 54 | 382 | < 4.30 | 5.72 | 0.018 | 7.89 | < 4.52
